{"source": "paper PMC8945229", "about": "“Development and Biological Characterization of a Novel Selective TrkA Agonist with Neuroprotective Properties against Amyloid Toxicity” (Biomedicines, 2022)", "key": {"CYP1A2": {"target": "T1, CYP1A2 (Homo sapiens, UniProt P05177)", "T1 construct": "purchased Thermo Fisher Scientific; host or cells: Baculosomes (microsomes of baculovirus-infected insect cells: own knowledge)", "T1 sequence (P05177 2-516 limits assumed)": "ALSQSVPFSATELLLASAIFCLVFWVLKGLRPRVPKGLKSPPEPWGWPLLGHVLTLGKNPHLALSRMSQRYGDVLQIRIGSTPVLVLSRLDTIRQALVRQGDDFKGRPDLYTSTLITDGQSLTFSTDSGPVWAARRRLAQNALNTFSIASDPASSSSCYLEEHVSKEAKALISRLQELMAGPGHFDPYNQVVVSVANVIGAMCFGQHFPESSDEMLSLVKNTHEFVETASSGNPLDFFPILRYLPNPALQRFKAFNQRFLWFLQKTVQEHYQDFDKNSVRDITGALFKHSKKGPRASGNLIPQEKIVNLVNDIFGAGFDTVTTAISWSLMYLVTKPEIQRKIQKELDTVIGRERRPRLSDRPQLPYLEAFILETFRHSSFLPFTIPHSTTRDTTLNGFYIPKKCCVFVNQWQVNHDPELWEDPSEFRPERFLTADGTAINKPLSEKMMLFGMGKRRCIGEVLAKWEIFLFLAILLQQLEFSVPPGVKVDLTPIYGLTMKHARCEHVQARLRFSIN", "experiment": "Isozyme-specific CYP450 inhibition (Baculosomes)", "type": "in vitro ADME", "conditions": "1 μM, 60 min", "description": "(§1) Baculosomes® expressing CYP1A2, CYP2A6, CYP2B6, CYP2C9, CYP2C19, CYP2D6 and CYP3A4 human CYP450 isoenzymes were purchased from Thermo Fisher Scientific (Waltham, MA, USA). All reagents were handled and prepared according to the manufacturer’s protocol. ENT-A013 was tested at 1 μM. Enzymatic activity in the presence of ΕΝΤ-A013 was assessed based on the kinetic model for CYP1A2, CYP2A6, CYP2B6, CYP2C9, CYP2C19, CYP2D6 and CYP3A4 isoforms. Reactions took place in triplicates at 20 °C. Glucose-6-phosphate at 333 mM and glucose-6-phosphate-dehydrogenase at 30 U/mL in 100 mM potassium phosphate, pH 8.0 (regeneration system) converted NADP^+ (10 mM in 100 mM potassium phosphate, pH 8.0) into NADPH to initiate the CYP450 reaction. Upon the addition of the fluorescent substrate, immediately (<2 min), the fluorescence signal was monitored over time at suitable excitation and emission wavelengths by Lionheart FX (BioTek, Winooski, VT, USA) (Table S2). CYP450 inhibition (%) was determined based on the reaction rates (fluorescence intensity changes per unit time). A total of n = 60 measurements per minute were acquired for a total time of t = 60 min. % Inhibition= (1 − X/A) × 100%(1) where: X is the rate observed in the presence of test-compound; A is the rate observed in the presence of negative (solvent, DMSO) control."}, "CYP2B6": {"target": "T2, CYP2B6 (Homo sapiens, UniProt P20813)", "T2 construct": "purchased Thermo Fisher Scientific; host or cells: Baculosomes (microsomes of baculovirus-infected insect cells: own knowledge)", "T2 sequence (P20813 whole entry)": "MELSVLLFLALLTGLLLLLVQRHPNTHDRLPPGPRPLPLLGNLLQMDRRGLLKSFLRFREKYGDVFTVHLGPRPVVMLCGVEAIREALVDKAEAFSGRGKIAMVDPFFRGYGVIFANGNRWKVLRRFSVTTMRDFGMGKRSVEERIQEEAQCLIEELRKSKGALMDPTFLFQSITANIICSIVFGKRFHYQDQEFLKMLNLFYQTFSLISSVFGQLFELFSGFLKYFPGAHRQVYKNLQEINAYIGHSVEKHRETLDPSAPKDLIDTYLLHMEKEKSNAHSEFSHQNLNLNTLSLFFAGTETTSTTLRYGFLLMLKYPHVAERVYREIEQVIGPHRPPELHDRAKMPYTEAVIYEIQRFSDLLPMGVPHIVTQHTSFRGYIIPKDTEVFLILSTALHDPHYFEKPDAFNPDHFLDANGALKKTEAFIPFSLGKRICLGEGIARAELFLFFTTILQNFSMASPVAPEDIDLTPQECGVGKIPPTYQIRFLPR", "experiment": "Isozyme-specific CYP450 inhibition (Baculosomes)", "type": "in vitro ADME", "conditions": "1 μM, 60 min", "description": "as §1"}, "CYP2C9": {"target": "T3, CYP2C9 (Homo sapiens, UniProt P11712)", "T3 construct": "purchased Thermo Fisher Scientific; host or cells: Baculosomes (microsomes of baculovirus-infected insect cells: own knowledge)", "T3 sequence (P11712 whole entry)": "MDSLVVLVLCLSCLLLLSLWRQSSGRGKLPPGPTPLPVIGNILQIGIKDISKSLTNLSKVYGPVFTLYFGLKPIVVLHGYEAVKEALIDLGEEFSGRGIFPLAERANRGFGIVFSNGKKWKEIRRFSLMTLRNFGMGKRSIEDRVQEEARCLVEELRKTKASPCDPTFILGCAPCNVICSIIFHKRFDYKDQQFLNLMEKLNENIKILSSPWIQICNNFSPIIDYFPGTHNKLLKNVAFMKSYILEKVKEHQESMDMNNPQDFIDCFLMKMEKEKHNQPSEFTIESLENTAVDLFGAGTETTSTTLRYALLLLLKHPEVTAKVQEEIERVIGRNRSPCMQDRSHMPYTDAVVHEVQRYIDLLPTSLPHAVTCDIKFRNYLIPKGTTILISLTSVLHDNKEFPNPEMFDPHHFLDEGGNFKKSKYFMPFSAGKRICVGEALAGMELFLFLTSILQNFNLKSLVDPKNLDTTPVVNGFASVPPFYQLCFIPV", "experiment": "Isozyme-specific CYP450 inhibition (Baculosomes)", "type": "in vitro ADME", "conditions": "1 μM, 60 min", "description": "as §1"}, "CYP2D6": {"target": "T4, CYP2D6 (Homo sapiens, UniProt P10635)", "T4 construct": "purchased Thermo Fisher Scientific; host or cells: Baculosomes (microsomes of baculovirus-infected insect cells: own knowledge)", "T4 sequence (P10635 whole entry)": "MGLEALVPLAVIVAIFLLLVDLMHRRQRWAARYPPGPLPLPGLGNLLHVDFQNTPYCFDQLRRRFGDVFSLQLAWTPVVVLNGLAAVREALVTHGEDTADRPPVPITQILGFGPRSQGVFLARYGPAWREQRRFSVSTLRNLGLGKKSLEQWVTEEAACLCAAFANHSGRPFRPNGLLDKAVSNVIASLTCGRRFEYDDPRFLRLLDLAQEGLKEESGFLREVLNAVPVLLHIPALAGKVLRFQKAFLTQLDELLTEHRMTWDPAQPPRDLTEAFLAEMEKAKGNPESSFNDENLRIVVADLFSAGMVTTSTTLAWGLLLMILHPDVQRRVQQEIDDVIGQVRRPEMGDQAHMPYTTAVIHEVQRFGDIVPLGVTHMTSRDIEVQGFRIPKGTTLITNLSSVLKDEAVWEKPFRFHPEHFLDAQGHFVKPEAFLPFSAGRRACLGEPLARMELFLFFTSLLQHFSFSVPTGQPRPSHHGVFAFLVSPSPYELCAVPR", "experiment": "Isozyme-specific CYP450 inhibition (Baculosomes)", "type": "in vitro ADME", "conditions": "1 μM, 60 min", "description": "as §1"}, "[1]": {"test_system": "CYP1A2, CYP2A6, CYP2B6, CYP2C9, CYP2C19, CYP2D6 and CYP3A4", "experiment": "CYP450 catalytic and metabolic activity, seven isoforms", "type": "in vitro ADME, human", "conditions": "1 μM", "description": "as §1"}, "[2]": {"test_system": "Primary Dorsal Root Ganglia (DRG) neurons", "experiment": "Neurite outgrowth assay in primary DRG neurons without NGF", "type": "cell-based, mouse", "conditions": "500 nM every 48 h, 5 DIV, NGF-neutralizing antibody", "description": "Primary Dorsal Root Ganglia (DRG) neurons were isolated from P0-P1 mouse pups (C57BL/6J, The Jackson Laboratory, Bar Harbor, ME, USA) as described previously and cultured with Neurobasal medium (21103049 Gibco, Grand Island, NY, USA) containing 2% B27 (17504044, Gibco, Grand Island, NY, USA), 100 ng/mL NGF (N-100, Alomone Labs, Jerusalem, Israel), 1X GlutaMax (35050061, Gibco, Grand Island, NY, USA), 10 mM HEPES (15630080, Gibco, Grand Island, NY, USA), 1% Penicillin/Streptomycin (15070063, Gibco, Grand Island, NY, USA) and 10 μM 5-Fluoro-2′-deoxyuridine (343333, Calbiochem, Darmstadt, Germany). For TUNEL assay, cells were cultured for 14 days in vitro and then the medium was deprived of NGF before adding ENT-A013 (500 nM, every 24 h) along with NGF-neutralizing antibody (N8773, 1:500, Sigma-Aldrich, St. Louis, MO, USA). Cells were then incubated for 48 h before being fixed with 4% PFA and labelled with TUNEL (11684795910, F. Hoffmann–La Roche Ltd., Basel, Switzerland) following the manufacturer’s protocol. Subsequently, cells were immunostained against Tuj1 (1:2000, 801201, Biolegend, Inc., San Diego, CA, USA) and anti-mouse Cy3 (1:1000, Invitrogen, A10521, Waltham, MA, USA) and imaged with a Leica SP8 confocal microscope. […] Cells were then imaged by confocal microscopy and neurite length was measured using Fiji software (NIH, Bethesda, Maryland, USA)."}, "[3]": {"test_system": "Primary hippocampal neurons", "experiment": "TUNEL assay in primary hippocampal neurons treated with oligomeric Aβ", "type": "cell-based, mouse", "conditions": "5 μM oligomeric Aβ, 500 nM every 24 h, 48 h", "description": "Primary hippocampal neurons were isolated from E17.5 mouse embryos (C57BL/6J, The Jackson Laboratory, Bar Harbor, ME, USA) as previously described and cultured with Neurobasal medium containing 2% B27, 1X GlutaMax, 10 mM HEPES and 1% PenStrep. Cells were maintained in a humified incubator at 37 °C and 5% CO2. For TUNEL assay, cells were left in culture for 16–18 days and then treated with 5 μM oligomeric Aβ along with ENT-A013 (500 nM, every 24 h) for 48 h. Cells were then fixed with 4% PFA and labelled with TUNEL (F. Hoffmann–La Roche Ltd., Basel, Switzerland, cat# 11684795910) following the manufacturer’s protocol. Subsequently, cells were immunostained against Tuj1 and imaged with confocal microscopy. For synaptic plasticity assay, cells were left in culture for 16–18 days and then treated with 5 μM oligomeric Aβ along with ENT-A013 (500 nM) for 4 h. Cells were then fixed with 4% PFA and immunostained against Tuj1 and Synaptophysin (1:1000, PA1-1043, Invitrogen, Waltham, MA, USA), anti-mouse Alexa fluor 488 (1:1000, A-11029, Invitrogen, Waltham, MA, USA) and anti-rabbit Alexa fluor 546 (1:1000, A10040, Invitrogen, Waltham, MA, USA). Images were acquired using confocal microscopy and the total area of synaptophysin positive puncta was measured and normalized to Tuj1 total area. […]"}}}
{"smiles": "CC12CCC(O)CC1=CCC1C2CCC2(C)C1CCC21CC1C=CBr", "note": "[ENT-A013, (2′R,3S,17S)-2′-(2-Bromovinyl)-5-Androstene-17,1′-Cyclopropan-3-ol]", "values": [{"measurement": "CYP450 inhibition (in words)", "setting": "CYP1A2", "result": "weak inhibitor"}, {"measurement": "CYP450 inhibition (in words)", "setting": "CYP2B6", "result": "weak inhibitor"}, {"measurement": "CYP450 inhibition (in words)", "setting": "CYP2C9", "result": "weak inhibitor"}, {"measurement": "CYP450 inhibition (in words)", "setting": "CYP2D6", "result": "moderate inhibition"}, {"measurement": "enzyme (catalytic) activity of the seven major CYP450s", "setting": "[1]; relative fluorescence of product", "result": "did not decrease the enzyme (catalytic) activity"}, {"measurement": "CYP450 (%) metabolic activity, residual % of time zero (in words)", "setting": "[1]; t = 0 to t = 60 min", "result": "overall metabolically stable"}, {"measurement": "axonal / neurite length (in words)", "setting": "[2]", "result": "this difference was not significant"}, {"measurement": "apoptosis (TUNEL)", "setting": "[3]", "result": "29.8% ± 2.5%"}]}
